Assay results published in patent US12060347B2 (BRISTOL-MYERS SQUIBB COMPANY, priority 2016, dated 2024).

Target: T1, human PAR4 (Homo sapiens, UniProt Q96RI0)
T1 construct: expressed in transfected cells; host or cells: HEK293 PAR4 Clone 1.2A (BMS Arctic ID 383940)
T1 sequence (Q96RI0 18-385): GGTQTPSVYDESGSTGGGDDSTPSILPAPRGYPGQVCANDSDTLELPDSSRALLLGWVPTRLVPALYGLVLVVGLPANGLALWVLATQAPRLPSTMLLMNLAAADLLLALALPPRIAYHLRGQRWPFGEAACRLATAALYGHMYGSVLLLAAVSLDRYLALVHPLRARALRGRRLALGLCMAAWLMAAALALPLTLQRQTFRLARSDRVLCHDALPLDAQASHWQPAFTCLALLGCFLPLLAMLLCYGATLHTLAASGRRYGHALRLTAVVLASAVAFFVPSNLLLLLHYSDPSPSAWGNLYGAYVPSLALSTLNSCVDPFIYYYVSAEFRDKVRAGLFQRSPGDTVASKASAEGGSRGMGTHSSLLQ
Assay: PAR4 FLIPR assay: antagonism of agonist-peptide-induced calcium mobilization in PAR4-expressing HEK293 cells
Type: cell-based
Conditions: H-Ala-Phe(4-F)-[…]NH2-induced intracellular calcium mobilization, 11-point curves

Row | Compound | IC50 [nM]
1 | COc1cnc2c(-c3nc4cc(F)c(O[C@@H](C)[C@@H](C)OC(=O)Nc5ccc(N6CCCC6)nc5)cc4s3)cc(C)cc2n1 [Example 605, (2R,3S)-3-((5-fluoro-2-(2-methoxy-7-methylquinoxalin-5-yl)benzo[d]thiazol-6-yl)oxy)butan-2-yl (6-(pyrrolidin-1-yl)pyridin-3-yl)carbamate] | 0.7
2 | COc1cnc2c(-c3nc4cc(F)c(O[C@@H](C)[C@@H](C)OC(=O)Nc5cnc(NCC(C)(C)O)nc5)cc4s3)cc(C)cc2n1 [Example 606, (2R,3S)-3-((5-fluoro-2-(2-methoxy-7-methylquinoxalin-5-yl)benzo[d]thiazol-6-yl)oxy)butan-2-yl (2-((2-hydroxy-2-methylpropyl)amino)pyrimidin-5-yl)carbamate] | 0.4
3 | COc1cnc2c(-c3nc4cc(F)c(O[C@@H](C)[C@@H](C)OC(=O)Nc5cnc(N(C)S(C)(=O)=O)nc5)cc4s3)cc(C)cc2n1 [Example 607, (2R,3S)-3-((5-fluoro-2-(2-methoxy-7-methylquinoxalin-5-yl)benzo[d]thiazol-6-yl)oxy)butan-2-yl (2-(N-methylmethylsulfonamido)pyrimidin-5-yl)carbamate] | 0.2
4 | COc1cnc2c(-c3nc4cc(F)c(O[C@@H](C)[C@@H](C)OC(=O)Nc5cnc(N6CCOCC6)nc5)cc4s3)cc(C)cc2n1 [Example 608, (2R,3S)-3-((5-fluoro-2-(2-methoxy-7-methylquinoxalin-5-yl)benzo[d]thiazol-6-yl)oxy)butan-2-yl (2-morpholinopyrimidin-5-yl)carbamate] | 0.5
5 | COc1cnc2c(-c3nc4cc(F)c(OC[C@@H](C)OC(=O)Nc5ccc(N6CCOC6=O)nc5)cc4s3)cc(C)cc2n1 [Example 609, (R)-1-((5-fluoro-2-(2-methoxy-7-methylquinoxalin-5-yl)benzo[d]thiazol-6-yl)oxy)propan-2-yl (6-(2-oxooxazolidin-3-yl)pyridin-3-yl)carbamate] | 1.9
6 | COc1cnc2c(-c3nc4cc(F)c(OC[C@@H](C)OC(=O)Nc5ccc(NC(C)=O)nc5)cc4s3)cc(C)cc2n1 [Example 610, (R)-1-((5-fluoro-2-(2-methoxy-7-methylquinoxalin-5-yl)benzo[d]thiazol-6-yl)oxy)propan-2-yl (6-acetamidopyridin-3-yl)carbamate] | 4.3
7 | COc1cnc2c(-c3nc4cc(F)c(OC[C@@H](C)OC(=O)Nc5cncc(CO)c5)cc4s3)cc(C)cc2n1 [Example 611, (R)-1-((5-fluoro-2-(2-methoxy-7-methylquinoxalin-5-yl)benzo[d]thiazol-6-yl)oxy)propan-2-yl (5-(hydroxymethyl)pyridin-3-yl)carbamate] | 2.1
8 | Cc1cc(-c2nc3cc(F)c(O[C@@H](C)[C@@H](C)OC(=O)Nc4cnc(C)nc4)cc3s2)c2ncc(C(N)=O)nc2c1 [Example 613, (2R,3S)-3-((2-(2-carbamoyl-7-methylquinoxalin-5-yl)-5-fluorobenzo[d]thiazol-6-yl)oxy)butan-2-yl (2-methylpyrimidin-5-yl)carbamate] | 65
9 | CNC(=O)c1cnc2c(-c3nc4cc(F)c(O[C@@H](C)[C@@H](C)OC(=O)Nc5cnc(C)nc5)cc4s3)cc(C)cc2n1 [Example 614, (2R,3S)-3-((5-fluoro-2-(7-methyl-2-(methylcarbamoyl)quinoxalin-5-yl)benzo[d]thiazol-6-yl)oxy)butan-2-yl (2-methylpyrimidin-5-yl)carbamate] | 30
10 | Cc1cc(-c2nc3cc(F)c(O[C@@H](C)[C@@H](C)OC(=O)Nc4cnc(C)nc4)cc3s2)c2ncc(C(=O)N(C)C)nc2c1 [Example 615, (2R,3S)-3-((2-(2-(dimethylcarbamoyl)-7-methylquinoxalin-5-yl)-5-fluorobenzo[d]thiazol-6-yl)oxy)butan-2-yl (2-methylpyrimidin-5-yl)carbamate] | 870
11 | Cc1cc(-c2nc3cc(F)c(O[C@@H](C)[C@@H](C)OC(=O)Nc4cnc(C)nc4)cc3s2)c2ncc(C(=O)NCCO)nc2c1 [Example 616, (2R,3S)-3-((5-fluoro-2-(2-((2-hydroxyethyl)carbamoyl)-7-methylquinoxalin-5-yl)benzo[d]thiazol-6-yl)oxy)butan-2-yl (2-methylpyrimidin-5-yl)carbamate] | 4200
12 | COc1cnc2c(-c3nc4c(Cl)c(F)c(OCCOC(=O)Nc5ccns5)cc4s3)cc(C)cc2n1 [Example 621, 2-((4-chloro-5-fluoro-2-(2-methoxy-7-methylquinoxalin-5-yl)benzo[d]thiazol-6-yl)oxy)ethyl isothiazol-5-ylcarbamate] | 8
13 | COc1cnc2c(-c3nc4c(Cl)c(F)c(OC[C@H]5CNC(=O)O5)cc4s3)cc(C)cc2n1 [Example 622, (R)-5-(((4-chloro-5-fluoro-2-(2-methoxy-7-methylquinoxalin-5-yl)benzo[d]thiazol-6-yl)oxy)methyl)oxazolidin-2-one] | 350
14 | COc1cnc2c(-c3nc4c(Cl)c(F)c(OCc5coc(N)n5)cc4s3)cc(C)cc2n1 [Example 623, 4-(((4-chloro-5-fluoro-2-(2-methoxy-7-methylquinoxalin-5-yl)benzo[d]thiazol-6-yl)oxy)methyl)oxazol-2-amine] | 320
15 | CCOc1cnc2c(-c3nc4cc(F)c(O[C@@H](C)[C@@H](C)OC(=O)Nc5cnc(CCOP(=O)(O)O)nc5)cc4s3)cc(C)cc2n1 [Example 624, (2R,3S)-3-((2-(2-ethoxy-7-methylquinoxalin-5-yl)-5-fluorobenzo[d]thiazol-6-yl)oxy)butan-2-yl (2-(2-(phosphonooxy)ethyl)pyrimidin-5-yl)carbamate] | 0.7
16 | COCc1cnc2c(-c3nc4c(C)cc(OC)cc4s3)cc(Cl)cc2c1 [Example 625, 2-(6-chloro-3-(methoxymethyl)quinolin-8-yl)-6-methoxy-4-methylbenzo[d]thiazole] | 1.8
17 | COc1cnc2c(-c3nc4c(C)cc(OC)cc4s3)cc(Cl)cc2c1 [Example 626, 2-(6-chloro-3-methoxyquinolin-8-yl)-6-methoxy-4-methylbenzo[d]thiazole] | 7.2
18 | COc1cc(C(C)(C)O)c2nc(-c3cc(C)cc4nc(OC)cnc34)sc2c1 [Example 627, 2-(6-methoxy-2-(2-methoxy-7-methylquinoxalin-5-yl)benzo[d]thiazol-4-yl)propan-2-ol] | 1400
19 | COCc1cnc2c(-c3nc4c(C(O)C(C)(C)C)cc(OC)cc4s3)cc(C)cc2n1 (stereo not drawn) [Example 628, 1-(6-methoxy-2-(2-(methoxymethyl)-7-methylquinoxalin-5-yl)benzo[d]thiazol-4-yl)-2,2-dimethylpropan-1-ol] | 1.4
20 | COc1cc(C(O)c2ccccc2)c2nc(-c3cc(C)cc4nc(OC)cnc34)sc2c1 (stereo not drawn) [Example 629, (6-methoxy-2-(2-methoxy-7-methylquinoxalin-5-yl)benzo[d]thiazol-4-yl) (phenyl)methanol] | 2.2
21 | COc1cc(C(O)C(C)(C)C)c2nc(-c3cc(C)cc4nc(OC)cnc34)sc2c1 (stereo not drawn) [Example 630, 1-(6-methoxy-2-(2-methoxy-7-methylquinoxalin-5-yl)benzo[d]thiazol-4-yl)-2,2-dimethylpropan-1-ol] | 1.4
22 | COc1cc(C(O)Cc2ccccc2)c2nc(-c3cc(C)cc4nc(OC)cnc34)sc2c1 (stereo not drawn) [Example 631, 1-(6-methoxy-2-(2-methoxy-7-methylquinoxalin-5-yl)benzo[d]thiazol-4-yl)-2-phenylethanol] | 5.3
23 | COc1cnc2c(-c3nc4c(C(O)C(C)(C)C)c(F)c(OC)cc4s3)cc(C)cc2n1 (stereo not drawn) [Example 632, 1-(5-fluoro-6-methoxy-2-(2-methoxy-7-methylquinoxalin-5-yl)benzo[d]thiazol-4-yl)-2,2-dimethylpropan-1-ol] | 10
24 | COc1cc(C(F)C(C)(C)C)c2nc(-c3cc(C)cc4nc(OC)cnc34)sc2c1 (stereo not drawn) [Example 634, 4-(1-fluoro-2,2-dimethylpropyl)-6-methoxy-2-(2-methoxy-7-methylquinoxalin-5-yl)benzo[d]thiazole] | 44
25 | COCc1cnc2c(-c3nc4c(OCc5ccccc5)cc(OC)cc4s3)cc(C)cc2n1 [Example 635, 4-(benzyloxy)-6-methoxy-2-(2-(methoxymethyl)-7-methylquinoxalin-5-yl)benzo[d]thiazole] | 10
26 | COc1cc(C(O)C(C)(C)C)c2nc(-c3cc(Cl)cc4nc(OC)cnc34)sc2c1 (stereo not drawn) [Example 636, 1-(2-(7-chloro-2-methoxyquinoxalin-5-yl)-6-methoxybenzo[d]thiazol-4-yl)-2,2-dimethylpropan-1-ol] | 3
27 | COc1cc(C(O)C(C)(C)C)c2nc(-c3cc(C)cc4nc(OC)cnc34)sc2c1 (stereo not drawn) [Example 637, 1-(6-methoxy-2-(2-methoxy-7-methylquinoxalin-5-yl)benzo[d]thiazol-4-yl)-2,2-dimethylpropan-1-ol] | 2.1
28 | COc1cnc2c(-c3nc4c(C(O)C(C)(C)C)cc(OCCOC(=O)Nc5cncc(C#N)c5)cc4s3)cc(C)cc2n1 (stereo not drawn) [Example 638, 2-((4-(1-hydroxy-2,2-dimethylpropyl)-2-(2-methoxy-7-methylquinoxalin-5-yl)benzo[d]thiazol-6-yl)oxy)ethyl (5-cyanopyridin-3-yl)carbamate] | 2.7
29 | COc1cc(C(O)C(C)(C)C)c2nc(-c3cc(C#N)cc4nc(OC)cnc34)sc2c1 (stereo not drawn) [Example 639, 8-(4-(1-hydroxy-2,2-dimethylpropyl)-6-methoxybenzo[d]thiazol-2-yl)-3-methoxyquinoxaline-6-carbonitrile] | 1.4
30 | CCOc1cc(C(O)C(C)(C)C)c2nc(-c3cc(C)cc4nc(OC)cnc34)sc2c1 (stereo not drawn) [Example 640, 1-(6-ethoxy-2-(2-methoxy-7-methylquinoxalin-5-yl)benzo[d]thiazol-4-yl)-2,2-dimethylpropan-1-ol] | 8
